Laboratory results reported in BindingDB's records for doi:10.7270/Q21R6NZ6 (Emory University, 2008).

Target: Mothers against decapentaplegic homolog 3 (Homo sapiens, UniProt P84022)
Experiment: blockers of Smad3 complex formation in lysate – cell lysate, secondary confirmation, chemiluminescent ELISA, HEK293 lysate, dose response (AID 1058)

Mothers against decapentaplegic homolog 3, sequence (P84022 whole entry): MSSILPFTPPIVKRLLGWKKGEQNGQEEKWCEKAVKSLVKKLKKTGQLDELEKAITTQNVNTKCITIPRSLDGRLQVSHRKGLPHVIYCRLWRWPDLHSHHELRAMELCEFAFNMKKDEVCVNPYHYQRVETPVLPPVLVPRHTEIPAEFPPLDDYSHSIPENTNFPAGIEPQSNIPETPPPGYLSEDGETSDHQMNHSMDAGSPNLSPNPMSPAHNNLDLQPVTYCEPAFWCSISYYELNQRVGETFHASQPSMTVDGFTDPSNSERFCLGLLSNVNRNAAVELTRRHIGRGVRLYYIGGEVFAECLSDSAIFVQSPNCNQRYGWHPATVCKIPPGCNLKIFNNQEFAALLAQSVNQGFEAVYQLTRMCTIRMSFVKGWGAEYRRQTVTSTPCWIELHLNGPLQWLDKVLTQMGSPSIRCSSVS

IC50: > 50 µM
Compound: COC(=O)c1ccccc1C1c2ccc(O)c(O)c2OC2C(=O)C(=O)C=CC21 (stereo unspecified) [2-(3,4,5-trihydroxy-6-keto-8a,9-dihydroxanthen-9-yl)benzoic acid methyl ester]
